In US12077503B2, “Substituted cyclic amides and their use as herbicides” (FMC CORPORATION, priority 2015, dated 2024):
Where two headings read alike, the source gives them in different places.

Assays:
Format in all cases: in vivo
[1] = test system: sedge, umbrella (small-flower umbrella sedge, Cyperus difformis); assay: Test B flooded paddy test; settings: Cyperus difformis, Flood, 250 g ai/ha
Method in brief: (§1)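 Greenhouse paddy pots with 2-leaf stage plants received compound by direct addition to floodwater 3 cm deep, kept at that level. Scored visually at 13–15 d versus controls (0 no effect; 100 complete control).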

[2] = test system: barnyardgrass (Echinochloa crus-galli); assay: Test B flooded paddy test; settings: Echinochloa crus-galli, Flood, 250 g ai/ha
Method in brief: as §1

rice (Oryra sativa) = assay: Test B flooded paddy test; settings: Oryza sativa, Flood, 250 g ai/ha
Method in brief: as §1

[3] = test system: ducksalad (Heteranthera limosa); assay: Test B flooded paddy test; settings: Heteranthera limosa, Flood, 250 g ai/ha
Method in brief: as §1

[4] = test system: ryegrass, Italian (Italian ryegrass, Lolium multiflorum); assay: Test A postemergence; settings: Lolium multiflorum, post-emergence, 240 h; for pest or weed control at 125 g/ha: 125 g ai/ha
Method in brief: (§2)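 Compounds were formulated in a non-phytotoxic solvent mixture with surfactant and applied as a preemergence directed soil spray after seeding, or sprayed postemergence over plants 2 to 10 cm tall at the one- to two-leaf stage. Evaluation after about 10 d compared treated with untreated controls, using a scale from 0 (no effect) to 100 (complete control).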

[5] = test system: ragweed (common ragweed, Ambrosia elatior); assay: Test A postemergence; settings: Ambrosia artemisiifolia, post-emergence, 240 h; for pest or weed control at 125 g/ha: 125 g ai/ha
Method in brief: as §2

[6] = test system: barnyardgrass (Echinochloa crus-galli); assay: Test A postemergence; settings: Echinochloa crus-galli, post-emergence, 240 h; for pest or weed control at 125 g/ha: 125 g ai/ha
Method in brief: as §2

[7] = test system: Galium (catchweed bedstraw, Galium aparine); assay: Test A postemergence; settings: Galium, post-emergence, 240 h; for pest or weed control at 125 g/ha: 125 g ai/ha
Method in brief: as §2

Kochia (Kochia scoparia) = assay: Test A postemergence; settings: Bassia scoparia, post-emergence, 240 h; for pest or weed control at 125 g/ha: 125 g ai/ha
Method in brief: as §2

corn (Zea mays) = assay: Test A postemergence; settings: Zea mays, post-emergence, 240 h
Method in brief: as §2

[8] = test system: wheat (Triticum aestivum); assay: Test A postemergence; settings: Triticum aestivum, post-emergence, 240 h; for plant injury at 125 g/ha: 125 g ai/ha
Method in brief: as §2

[9] = test system: pigweed (Amaranthus retroflexus); assay: Test A postemergence; settings: Amaranthus retroflexus, post-emergence, 240 h; for pest or weed control at 125 g/ha: 125 g ai/ha
Method in brief: as §2

[10] = test system: blackgrass (Alopecurus myosuroides); assay: Test A postemergence; settings: Alopecurus myosuroides, post-emergence, 240 h; for pest or weed control at 125 g/ha: 125 g ai/ha
Method in brief: as §2

[11] = test system: giant foxtail (Setaria faberii); assay: Test A postemergence; settings: Setaria faberi, post-emergence, 240 h; for pest or weed control at 125 g/ha: 125 g ai/ha
Method in brief: as §2

`C=CN1C[C@H](c2ccc(C)c(F)c2)[C@@H](C(=O)Nc2cccc(F)c2F)C1=O` (racemic) [Compound 1332] showed a pest or weed control at 250 g/ha ([1]; 360 h, visually evaluated after 13 to 15 d, read-out: Plant response rating, Sedge, Umbrella (0 to 100 scale where 0 is no effect and 100 is complete control)) of 0%, a pest or weed control at 250 g/ha ([2]; 360 h, visually evaluated after 13 to 15 d, read-out: Plant response rating, Barnyardgrass (0 to 100 scale where 0 is no effect and 100 is complete control)) of 0% and a pest or weed control at 250 g/ha (rice (Oryra sativa); 360 h, visually evaluated after 13 to 15 d, read-out: Plant response rating, Rice (0 to 100 scale where 0 is no effect and 100 is complete control)) of 0%. It also gave a pest or weed control at 250 g/ha ([3]; 360 h, visually evaluated after 13 to 15 d, read-out: Plant response rating, Ducksalad (0 to 100 scale where 0 is no effect and 100 is complete control)) of 100%, a pest or weed control at 125 g/ha ([4]; Postemergence, visual rating about 10 d after treatment, read-out: Ryegrass, Italian plant response rating (0 to 100 scale)) of 0% and a pest or weed control at 500 g/ha ([4]; Postemergence, 500 g ai/ha, visual injury, 0 to 100 scale (0 no effect, 100 complete control), approx. 10 d, read-out: Plant response rating, Ryegrass, Italian) of 0%. For the same molecule, the pest or weed control at 125 g/ha ([5]; Postemergence, visual rating about 10 d after treatment, read-out: Ragweed plant response rating (0 to 100 scale)) was 0%, the pest or weed control at 500 g/ha ([5]; Postemergence, 500 g ai/ha, visual injury, 0 to 100 scale (0 no effect, 100 complete control), approx. 10 d, read-out: Plant response rating, Ragweed) was 20% and the pest or weed control at 125 g/ha ([6]; Postemergence, visual rating about 10 d after treatment, read-out: Barnyardgrass plant response rating (0 to 100 scale, 0 no effect, 100 complete control)) was 50%. For the same molecule, the pest or weed control at 500 g/ha ([6]; Postemergence, 500 g ai/ha, visual injury, 0 to 100 scale (0 no effect, 100 complete control), approx. 10 d, read-out: Plant response rating, Barnyardgrass) was 60%, the pest or weed control at 125 g/ha ([7]; Postemergence, visual rating about 10 d after treatment, read-out: Galium plant response rating (0 to 100 scale)) was 0% and the pest or weed control at 500 g/ha ([7]; Postemergence, 500 g ai/ha, visual injury, 0 to 100 scale (0 no effect, 100 complete control), approx. 10 d, read-out: Plant response rating, Galium) was 20%. For the same molecule, the pest or weed control at 125 g/ha (Kochia (Kochia scoparia); Postemergence, visual rating about 10 d after treatment, read-out: Kochia plant response rating (0 to 100 scale)) was 0%, the pest or weed control at 500 g/ha (Kochia (Kochia scoparia); Postemergence, 500 g ai/ha, visual injury, 0 to 100 scale (0 no effect, 100 complete control), approx. 10 d, read-out: Plant response rating, Kochia) was 0% and the plant injury at 125 g/ha (corn (Zea mays); 125 g ai/ha, Postemergence, visual rating about 10 d after treatment, read-out: Corn plant response rating (0 to 100 scale)) was 0%. The Corn plant response rating (crop injury, 0 = no effect, 100 = complete kill) at 500 g/ha (corn (Zea mays); Postemergence, 500 g ai/ha, visual injury, 0 to 100 scale (0 no effect, 100 complete control), approx. 10 d) was 0%, the plant injury at 125 g/ha ([8]; Postemergence, visual rating about 10 d after treatment, read-out: Wheat plant response rating (0 to 100 scale)) was 0% and the plant injury at 500 g/ha ([8]; Postemergence, 500 g ai/ha, visual injury, 0 to 100 scale (0 no effect, 100 complete control), approx. 10 d, read-out: Plant response rating, Wheat) was 20%. It also gave a pest or weed control at 125 g/ha ([9]; Postemergence, visual rating about 10 d after treatment, read-out: Pigweed plant response rating (0 to 100 scale)) of 0%, a pest or weed control at 500 g/ha ([9]; Postemergence, 500 g ai/ha, visual injury, 0 to 100 scale (0 no effect, 100 complete control), approx. 10 d, read-out: Plant response rating, Pigweed) of 0% and a pest or weed control at 125 g/ha ([10]; Postemergence, visual rating about 10 d after treatment, read-out: Blackgrass plant response rating (0 to 100 scale)) of 0%. For the same molecule, the pest or weed control at 500 g/ha ([10]; Postemergence, 500 g ai/ha, visual injury, 0 to 100 scale (0 no effect, 100 complete control), approx. 10 d, read-out: Plant response rating, Blackgrass) was 30%, the pest or weed control at 125 g/ha ([11]; Postemergence, visual rating about 10 d after treatment, read-out: Foxtail, Giant plant response rating (0 to 100 scale)) was 40% and the pest or weed control at 500 g/ha ([11]; Postemergence, 500 g ai/ha, visual injury, 0 to 100 scale (0 no effect, 100 complete control), approx. 10 d, read-out: Plant response rating, Foxtail, Giant) was 60%.
In the case of `Cc1cc([C@H]2CNC(=O)[C@@H]2C(=O)Nc2ccccc2F)ccc1F` [Compound 717], the pest or weed control at 250 g/ha ([1]; scale of 0 to 100 where 0 is no effect and 100 is complete control, read-out: Sedge, Umbrella plant response rating) is reported as 0%, the pest or weed control at 250 g/ha ([2]; scale of 0 to 100 where 0 is no effect and 100 is complete control, read-out: Barnyardgrass plant response rating) is reported as 60% and the pest or weed control at 250 g/ha (rice (Oryra sativa); scale of 0 to 100 where 0 is no effect and 100 is complete control, read-out: Rice plant response rating) is reported as 0%. It also gave a pest or weed control at 250 g/ha ([3]; scale of 0 to 100 where 0 is no effect and 100 is complete control, read-out: Ducksalad plant response rating) of 100%, a pest or weed control at 125 g/ha ([4]; postemergence, visual injury after approximately 10 d, 0 to 100 scale (0 no effect, 100 complete control), read-out: Plant response rating, Ryegrass, Italian) of 0% and a pest or weed control at 125 g/ha ([5]; postemergence, visual injury after approximately 10 d, 0 to 100 scale (0 no effect, 100 complete control), read-out: Plant response rating, Ragweed) of 0%. For the same molecule, the pest or weed control at 125 g/ha ([6]; postemergence, visual injury after approximately 10 d, 0 to 100 scale (0 no effect, 100 complete control), read-out: Plant response rating, Barnyardgrass) was 90%, the pest or weed control at 125 g/ha ([7]; postemergence, visual injury after approximately 10 d, 0 to 100 scale (0 no effect, 100 complete control), read-out: Plant response rating, Galium) was 40% and the pest or weed control at 125 g/ha (Kochia (Kochia scoparia); postemergence, visual injury after approximately 10 d, 0 to 100 scale (0 no effect, 100 complete control), read-out: Plant response rating, Kochia) was 20%. The Corn plant response rating (crop injury, 0 = no effect, 100 = complete kill) at 125 g/ha (corn (Zea mays); 125 g ai/ha, postemergence, visual injury after approximately 10 d, 0 to 100 scale (0 no effect, 100 complete control)) was 0%, the plant injury at 125 g/ha ([8]; postemergence, visual injury after approximately 10 d, 0 to 100 scale (0 no effect, 100 complete control), read-out: Plant response rating, Wheat) was 0% and the pest or weed control at 125 g/ha ([9]; postemergence, visual injury after approximately 10 d, 0 to 100 scale (0 no effect, 100 complete control), read-out: Plant response rating, Pigweed) was 0%. For the same molecule, the pest or weed control at 125 g/ha ([10]; postemergence, visual injury after approximately 10 d, 0 to 100 scale (0 no effect, 100 complete control), read-out: Plant response rating, Blackgrass) was 0% and the pest or weed control at 125 g/ha ([11]; postemergence, visual injury after approximately 10 d, 0 to 100 scale (0 no effect, 100 complete control), read-out: Plant response rating, Foxtail, Giant) was 30%.
